According to publication PMC5414976, “Reduction of reactive red 241 by oxygen insensitive azoreductase purified from a novel strain Staphylococcus KU898286” (PLoS ONE, 2017):

Test system: T1, azoreductase
T1 construct: native enzyme purified from strain S1 cells (sonication, ammonium sulphate, Sephadex G-100); 29 kDa by SDS-PAGE
Assay: dye decolourisation at […] nm, Lineweaver-Burk
Format: biochemical, Staphylococcus aureus

## NC(=O)C1=CN([C@@H]2O[C@H](COP(=O)(O)OP(=O)(O)OC[C@H]3O[C@@H](n4cnc5c(N)ncnc54)[C@H](O)[C@@H]3O)[C@@H](O)[C@H]2O)C=CC1 [NADH]
0.5 mM RR241, NADH varied
  Km: 1020 µM

## O=S(=O)(O)OCCS(=O)(=O)c1ccc(Nc2nc(Cl)nc(Nc3cc(S(=O)(=O)O)cc4cc(S(=O)(=O)O)c(N=Nc5ccc6c(S(=O)(=O)O)cccc6c5S(=O)(=O)O)c(O)c34)n2)cc1 [RR241, reactive red 241]
Constant NADH 1 mM (text; legend of Fig 4a says absence of NADH)
  Km: 1540 µM
